Patent US11787796B2, “Plasma Kallikrein inhibitors and uses thereof” (Takeda Pharmaceutical Company Limited, priority 2019, dated 2023)

Biological target: human activated kallikrein enzyme (Homo sapiens (Human), UniProt P03952)
Assay: Plasma kallikrein inhibition assay with fluorogenic peptide substrate, 500 pM activated kallikrein format
Type: biochemical
Conditions: 500 pM activated kallikrein; 300 uM Pro-Phe-Arg-7-amido-4-methylcoumarin substrate; 30 min preincubation, 10 min reaction at RT; read-out: Primary Dose Response Assay: Average EC50
Method in brief: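 Pro-Phe-Arg-7-amido-4-methylcoumarin substrate (300 uM) started reactions after a 30 min RT enzyme–inhibitor preincubation. This format used 500 pM activated human kallikrein in Tris pH 7.5 buffer with EDTA, NaCl, PEG-400 and Triton X-100. AMC fluorescence (380/460 nm) was measured after 10 min at RT.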

human activated kallikrein enzyme, sequence (P03952 391-638): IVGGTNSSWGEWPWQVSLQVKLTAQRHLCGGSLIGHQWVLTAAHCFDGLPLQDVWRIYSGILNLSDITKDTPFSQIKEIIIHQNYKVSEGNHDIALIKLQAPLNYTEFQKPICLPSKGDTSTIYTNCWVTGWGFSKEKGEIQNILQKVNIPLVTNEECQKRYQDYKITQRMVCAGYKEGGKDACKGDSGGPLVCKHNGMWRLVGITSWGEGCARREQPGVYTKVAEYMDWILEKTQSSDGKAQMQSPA
human activated kallikrein enzyme, sequence (P03952 20-390 partner): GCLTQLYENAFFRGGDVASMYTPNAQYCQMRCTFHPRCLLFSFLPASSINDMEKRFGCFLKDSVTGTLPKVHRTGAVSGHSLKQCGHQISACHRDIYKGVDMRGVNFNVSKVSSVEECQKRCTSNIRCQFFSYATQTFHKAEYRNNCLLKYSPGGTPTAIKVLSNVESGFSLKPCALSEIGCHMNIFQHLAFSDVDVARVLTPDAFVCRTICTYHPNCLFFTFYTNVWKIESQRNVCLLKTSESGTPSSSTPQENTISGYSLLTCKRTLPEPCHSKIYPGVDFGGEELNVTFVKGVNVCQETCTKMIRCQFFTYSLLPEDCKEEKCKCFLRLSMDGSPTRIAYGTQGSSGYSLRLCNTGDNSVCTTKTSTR

Row | Compound | EC50 [nM]
1 | Cc1cc(C(=N)N)cc(C)c1CNC(=O)c1cn(Cc2cn3cc(C4CC4)cc(C(=O)O)c3n2)nn1 [Example I-111, 2-((4-((4-carbamimidoyl-2,6-dimethylbenzyl)carbamoyl)-1H-1,2,3-triazol-1-yl)methyl)-6-cyclopropylimidazo[1,2-a]pyridine-8-carboxylic Acid] | ≤ 1
2 | CCOC(=O)c1cc(C2CC2)cn2cc(Cn3cc(C(=O)NCc4c(C)cc(C(=N)N)cc4C)nn3)nc12 [Example I-112, ethyl 2-((4-((4-carbamimidoyl-2,6-dimethylbenzyl)carbamoyl)-1H-1,2,3-triazol-1-yl)methyl)-6-cyclopropylimidazo[1,2-a]pyridine-8-carboxylate] | ≤ 1
3 | CCOC(=O)CCc1cc(C2CC2)cn2cc(Cn3cc(C(=O)NCc4c(-n5cnnn5)ccc(Cl)c4F)nn3)nc12 [Example I-113, ethyl 3-(2-((4-((3-chloro-2-fluoro-6-(1H-tetrazol-1-yl)benzyl)carbamoyl)-1H-1,2,3-triazol-1-yl)methyl)-6-cyclopropylimidazo[1,2-a]pyridin-8-yl)propanoate] | ≤ 1
4 | O=C(NCc1c(N2CC3(COC3)C2)ccc(Cl)c1F)c1cnn(Cc2cn3cc(C4CC4)ccc3n2)c1 [Example I-114, N-(3-chloro-2-fluoro-6-(2-oxa-6-azaspiro[3.3]heptan-6-yl)benzyl)-1-((6-cyclopropylimidazo[1,2-a]pyridin-2-yl)methyl)-1H-pyrazole-4-carboxamide] | 100 to 2000
5 | Cc1cc(C(=N)N)cc(C)c1CNC(=O)c1cn(Cc2cn3cc(C4CC4)ccc3n2)nn1 [Example I-115, N-(4-carbamimidoyl-2,6-dimethylbenzyl)-1-((6-cyclopropylimidazo[1,2-a]pyridin-2-yl)methyl)-1H-1,2,3-triazole-4-carboxamide] | ≤ 1
6 | O=C(NCc1c(-n2cnnn2)ccc(Cl)c1F)c1cnn(Cc2cn3cc(C4CC4)ccc3n2)c1 [Example I-116, N-(3-chloro-2-fluoro-6-(1H-tetrazol-1-yl)benzyl)-1-((6-cyclopropylimidazo[1,2-a]pyridin-2-yl)methyl)-1H-pyrazole-4-carboxamide] | ≤ 1
7 | O=C(NCc1cc(Cl)ccc1-c1nn[nH]n1)c1cnn(Cc2cn3cc(C4CC4)ccc3n2)c1 [Example I-117, N-(5-chloro-2-(2H-tetrazol-5-yl)benzyl)-1-((6-cyclopropylimidazo[1,2-a]pyridin-2-yl)methyl)-1H-pyrazole-4-carboxamide] | > 7100
8 | COc1ccc(C#N)c(CNC(=O)c2cnn(Cc3cn4cc(C5CC5)cc(C#N)c4n3)c2)c1F [Example I-118, N-(6-cyano-2-fluoro-3-methoxybenzyl)-1-((8-cyano-6-cyclopropylimidazo[1,2-a]pyridin-2-yl)methyl)-1H-pyrazole-4-carboxamide] | ≤ 1
9 | COc1ccc(C#N)c(CNC(=O)c2cnn(Cc3cn4cc(C5CC5)ccc4n3)c2)c1F [Example I-119, N-(6-cyano-2-fluoro-3-methoxybenzyl)-1-((6-cyclopropylimidazo[1,2-a]pyridin-2-yl)methyl)-1H-pyrazole-4-carboxamide] | 1 to 10
10 | O=C(NCc1cc(=O)[nH]c2ccccc12)c1cnn(Cc2cn3cc(C4CC4)ccc3n2)c1 [Example I-120, 1-((6-cyclopropylimidazo[1,2-a]pyridin-2-yl)methyl)-N-((2-oxo-1,2-dihydroquinolin-4-yl)methyl)-1H-pyrazole-4-carboxamide] | 10 to 100
11 | O=C(NCc1cccc(Cl)c1)c1cnn(Cc2cn3cc(C4CC4)ccc3n2)c1 [Example I-121, N-(3-chlorobenzyl)-1-((6-cyclopropylimidazo[1,2-a]pyridin-2-yl)methyl)-1H-pyrazole-4-carboxamide] | 100 to 2000
12 | O=C(NCc1cc(=O)[nH]c2ccc(Br)cc12)c1cnn(Cc2cn3cc(C4CC4)ccc3n2)c1 [Example I-122, N-((6-bromo-2-oxo-1,2-dihydroquinolin-4-yl)methyl)-1-((6-cyclopropylimidazo[1,2-a]pyridin-2-yl)methyl)-1H-pyrazole-4-carboxamide] | 1 to 10
13 | Cc1cc2[nH]cc(Cl)c2c(C)c1CNC(=O)c1cnn(Cc2cn3cc(C4CC4)ccc3n2)c1 [Example I-123, N-((3-chloro-4,6-dimethyl-1H-indol-5-yl)methyl)-1-((6-cyclopropylimidazo[1,2-a]pyridin-2-yl)methyl)-1H-pyrazole-4-carboxamide] | 10 to 100
14 | Cc1cc2[nH]ccc2c(C)c1CNC(=O)c1cnn(Cc2cn3cc(C4CC4)ccc3n2)c1 [Example I-124, 1-((6-cyclopropylimidazo[1,2-a]pyridin-2-yl)methyl)-N-((4,6-dimethyl-1H-indol-5-yl)methyl)-1H-pyrazole-4-carboxamide] | 10 to 100
15 | O=C(NCc1cc(Cl)ccc1-n1cnnn1)c1cnn(Cc2cn3cc(C4CC4)ccc3n2)c1 [Example I-125, N-(5-chloro-2-(1H-tetrazol-1-yl)benzyl)-1-((6-cyclopropylimidazo[1,2-a]pyridin-2-yl)methyl)-1H-pyrazole-4-carboxamide] | 1 to 10
16 | O=C(NCc1csc2ccc(Cl)cc12)c1cnn(Cc2cn3cc(C4CC4)ccc3n2)c1 [Example I-128, N-((5-chlorobenzo[b]thiophen-3-yl)methyl)-1-((6-cyclopropylimidazo[1,2-a]pyridin-2-yl)methyl)-1H-pyrazole-4-carboxamide] | 100 to 2000
17 | O=C(NCCOc1cccc(Cl)c1)c1cnn(Cc2cn3cc(C4CC4)ccc3n2)c1 [Example I-129, N-(2-(3-chlorophenoxy)ethyl)-1-((6-cyclopropylimidazo[1,2-a]pyridin-2-yl)methyl)-1H-pyrazole-4-carboxamide] | 100 to 2000
18 | O=C(NCc1cccc2ccc(Cl)cc12)c1cnn(Cc2cn3cc(C4CC4)ccc3n2)c1 [Example I-130, N-((7-chloronaphthalen-1-yl)methyl)-1-((6-cyclopropylimidazo[1,2-a]pyridin-2-yl)methyl)-1H-pyrazole-4-carboxamide] | 2000 to 7100
19 | O=C(NCc1nccc2ccc(Cl)cc12)c1cnn(Cc2cn3cc(C4CC4)ccc3n2)c1 [Example I-131, N-((7-chloroisoquinolin-1-yl)methyl)-1-((6-cyclopropylimidazo[1,2-a]pyridin-2-yl)methyl)-1H-pyrazole-4-carboxamide] | 100 to 2000
20 | O=C(NCCc1cccc(Br)c1)c1cnn(Cc2cn3cc(C4CC4)ccc3n2)c1 [Example I-132, N-(3-bromophenethyl)-1-((6-cyclopropylimidazo[1,2-a]pyridin-2-yl)methyl)-1H-pyrazole-4-carboxamide] | 100 to 2000
21 | O=C(NCc1cccc2ccc(Br)cc12)c1cnn(Cc2cn3cc(C4CC4)ccc3n2)c1 [Example I-133, N-((7-bromonaphthalen-1-yl)methyl)-1-((6-cyclopropylimidazo[1,2-a]pyridin-2-yl)methyl)-1H-pyrazole-4-carboxamide] | 2000 to 7100
22 | Cc1cc2c(N)noc2c(C)c1CNC(=O)c1cnn(Cc2cn3cc(C4CC4)ccc3n2)c1 [Example I-134, N-((3-amino-5,7-dimethylbenzo[d]isoxazol-6-yl)methyl)-1-((6-cyclopropylimidazo[1,2-a]pyridin-2-yl)methyl)-1H-pyrazole-4-carboxamide] | 2000 to 7100
23 | O=C(NC1CCc2c(Cl)ccn3cnc1c23)c1cn(Cc2cn3cc(C4CC4)ccc3n2)nn1 (stereo not drawn) [Example I-135, N-(6-chloro-8,9-dihydro-7H-imidazo[4,5,1-ij]quinolin-9-yl)-1-((6-cyclopropylimidazo[1,2-a]pyridin-2-yl)methyl)-1H-1,2,3-triazole-4-carboxamide] | 10 to 100
24 | O=C(NCc1ccc2nccn2c1)c1cn(Cc2cn3cc(C4CC4)ccc3n2)nn1 [Example I-136, 1-((6-cyclopropylimidazo[1,2-a]pyridin-2-yl)methyl)-N-(imidazo[1,2-a]pyridin-6-ylmethyl)-1H-1,2,3-triazole-4-carboxamide] | 100 to 2000
25 | O=C(NCc1ncc2c(F)cc(Cl)cn12)c1cnn(Cc2cn3cc(C4CC4)ccc3n2)c1 [Example I-137, N-((6-chloro-8-fluoroimidazo[1,5-a]pyridin-3-yl)methyl)-1-((6-cyclopropylimidazo[1,2-a]pyridin-2-yl)methyl)-1H-pyrazole-4-carboxamide] | 100 to 2000
26 | COc1ccnc(CNC(=O)c2cn(Cc3cn4cc(C5CC5)cc(CCN(C)C)c4n3)nn2)c1F [Example I-138, 1-((6-cyclopropyl-8-(2-(dimethylamino)ethyl)imidazo[1,2-a]pyridin-2-yl)methyl)-N-((3-fluoro-4-methoxypyridin-2-yl)methyl)-1H-1,2,3-triazole-4-carboxamide] | 1 to 10
27 | COc1ccnc(CNC(=O)c2cn(Cc3cn4cc(C5CC5)cc(N5CCN(C)CC5)c4n3)nn2)c1F [Example I-139, 1-((6-cyclopropyl-8-(4-methylpiperazin-1-yl)imidazo[1,2-a]pyridin-2-yl)methyl)-N-((3-fluoro-4-methoxypyridin-2-yl)methyl)-1H-1,2,3-triazole-4-carboxamide] | ≤ 1
28 | O=C(NCc1cc2occc2cn1)c1cn(Cc2cn3cc(C4CC4)ccc3n2)nn1 [Example I-140, 1-((6-cyclopropylimidazo[1,2-a]pyridin-2-yl)methyl)-N-(furo[3,2-c]pyridin-6-ylmethyl)-1H-1,2,3-triazole-4-carboxamide] | 100 to 2000
29 | O=C(NCc1cc2c(cn1)CCO2)c1cn(Cc2cn3cc(C4CC4)ccc3n2)nn1 [Example I-141, 1-((6-cyclopropylimidazo[1,2-a]pyridin-2-yl)methyl)-N-((2,3-dihydrofuro[3,2-c]pyridin-6-yl)methyl)-1H-1,2,3-triazole-4-carboxamide] | 10 to 100
30 | O=C(NCc1cc(Cl)ccn1)c1cn(Cc2cn3cc(C4CC4)ccc3n2)nn1 [Example I-142, N-((4-chloropyridin-2-yl)methyl)-1-((6-cyclopropylimidazo[1,2-a]pyridin-2-yl)methyl)-1H-1,2,3-triazole-4-carboxamide] | 2000 to 7100
